Assay results reported in PMC5114681, “Molecular Mechanism of Action of Antimalarial Benzoisothiazolones: Species-Selective Inhibitors of the Plasmodium spp. MEP Pathway enzyme, IspD” (Scientific Reports, 2016).
Entries after “also recorded” stand apart in the source; their conditions may differ.

Key:
A. thaliana IspD = system: A. thaliana IspD; parameters: method as in PMID 24446431, PMID 21766403, PMID 22975264; details: known IspD inhibitors, Fig. 2; cited from earlier work
MEP pathway = experiment: MEP metabolite profiling (LC-MS/MS of DOXP and MEcPP) in treated parasites; details: 10 hours; for MEcPP levels compared to untreated parasites: 3 μM 8 or 5 μM FSM
P. falciparum strain 3D7 [1] = experiment: Parasite growth inhibition with and without IPP supplementation (rescue); type: cell-based; details: for IPP rescue of parasite growth: 200 μM IPP supplementation
Protocol: (§1) Asynchronous cultures of P. falciparum strain 3D7 were diluted to 1% parasitemia and cultured at indicated concentrations of inhibitor compounds in 100 μL culture volumes. During rescue experiments, parasite growth medium was supplemented with 200 μM isopentenyl pyrophosphate (IPP; Echelon Biosciences). After 72 hours, parasite growth was quantified using PicoGreen dye (Invitrogen) to measure DNA content as previously described. PicoGreen fluorescence was measured (485 nm excitation/528 nm emission) in a POLARStar Omega microplate reader (BMG Labtech).

P. vivax IspD = system: P. vivax IspD; parameters: method as in PMID 24446431, PMID 21766403, PMID 22975264; details: known IspD inhibitors, Fig. 2; cited from earlier work
P. falciparum IspD = system: P. falciparum IspD; parameters: method as in PMID 26783558, PMID 25367906, PMID 24247137, PMID 25754494; details: known IspD inhibitors, Fig. 2; cited from earlier work
PvIspD = PvIspD (Plasmodium vivax, UniProt A5K9U5); experiment: IspD enzyme assay (EnzChek phosphate release), recombinant PvIspD; type: biochemical, P. vivax
Protocol: (§2) Phosphate released by IspD was quantified using the EnzChek Phosphate Assay Kit (Invitrogen, Life Technologies), as previously described. 2-Amino-6-mercapto-7-methylpurine riboside (MESG) and purine nucleoside phosphorylase (PNP) were diluted and stored according to the manufacturer’s instructions. Final concentrations of reagents were as follows: 100 mM NaCl, 25 mM Tris pH 7.5, 7.5 mM MgCl2, 1 U/ml PNP, 0.1 U/mL yeast inorganic pyrophosphatase (New England Biolabs). […] Reactions were performed in 50 μL final volumes in 96-well clear flat bottom plates. In general, enzymes, buffers, and inhibitors were pre-warmed approximately 15 minutes at 37 °C, and reactions were then initiated by addition of the MEP substrate. […] Assays using E. coli IspD used 7.5 nM EcIspD-wt or 75 nM EcIspD-A14C. Absorbance at 360 nm was measured over time on a BMG POLARStar plate reader, preheated to 37 °C. Nonlinear regression analysis was performed using GraphPad Prism software. […] Slopes of changing absorbance values were converted to (μM MEP) (μM enzyme)^−1 s^−1 using a phosphate standard curve.

PfIspD = PfIspD (Plasmodium falciparum, UniProt Q8I273); experiment: biochemical; details: mean and SEM; n ≥ 3
Protocol: as §2

P. falciparum strain 3D7 [2] = experiment: Parasite sensitivity assay (PicoGreen, 72 hours), strain 3D7; type: cell-based; details: Plasmodium falciparum, mean and SEM, n ≥ 3, read-out: (3D7) EC50, P. falciparum growth in culture
Protocol: (§3) Unless otherwise specified, P. falciparum parasites were cultured as previously described, in a 2% suspension of human erythrocytes in RPMI-1640 medium (Sigma Aldrich) supplemented with 27 mM sodium bicarbonate, 11 mM glucose, 5 mM HEPES, 1 mM sodium pyruvate, 0.37 mM hypoxanthine, 0.01 mM thymidine, 10 μg ml^−1 gentamicin and 0.5% Albumax (Life Technologies). Cultures were maintained in 5% O2/5% CO2/90% N2 at 37 °C. Parasite growth was monitored by microscopy of Giemsa-stained parasites. 3D7 strain parasites were obtained from the Malaria Research and Reference Reagent Resource Center, ATCC, Manassas, Virginia. D6 and 7G8 strains were obtained through BEI Resources Repository, NIAID, NIH: Plasmodium falciparum, Strain D6, MRA-285, contributed by D.E. Kyle; Plasmodium falciparum, Strain 7G8, MRA-152, contributed by David Walliker. The IPC 5202 strain was provided by the Malaria Research and Reference Reagent Resource Center (MR4) for distribution by BEI Resources NIAID, NIH: Plasmodium falciparum, Strain IPC 5202, also known as CAM3.IR539T; MRA-1240, contributed by Didier Ménard.
as §1

EcIspD-A14C = target: T1, EcIspD-A14C (Escherichia coli, UniProt Q46893, A14C); experiment: IspD enzyme assay, recombinant EcIspD-A14C mutant; type: biochemical, E. coli
T1 construct: Amplicons containing the entire E. coli IspD gene were generated; 6His (N); made in house; host or cells: Artic Express (DE3) RIL E. coli
Protocol: as §2

PfIspD-C202A = experiment: IspD enzyme assay, recombinant PfIspD-C202A mutant; type: biochemical, P. falciparum; details: prolonged (50 min.) incubation
Protocol: as §2

[3] = system: P. falciparum strain IPC 5202; experiment: Parasite sensitivity assay, strain IPC 5202 (artemisinin-resistant); type: cell-based; details: Plasmodium falciparum, mean and SEM, read-out: Whole Cell Growth Inhibition EC50
Protocol: as §3, with “The IPC 5202 strain was provided by the Malaria Research and Reference Reagent Resource Center (MR4) for distribution by BEI Resources NIAID, NIH: Plasmodium falciparum, Strain IPC 5202, also known as CAM3.IR539T; MRA-1240, contributed by Didier Ménard.” left out
as §1, with “During rescue experiments, parasite growth medium was supplemented with 200 μM isopentenyl pyrophosphate (IPP; Echelon Biosciences).” left out

P. falciparum strain D6 = experiment: Parasite sensitivity assay, strain D6 (mefloquine-resistant); type: cell-based; details: Plasmodium falciparum, mean and SEM, read-out: Whole Cell Growth Inhibition EC50
Protocol: as §3, with “The IPC 5202 strain was provided by the Malaria Research and Reference Reagent Resource Center (MR4) for distribution by BEI Resources NIAID, NIH: Plasmodium falciparum, Strain IPC 5202, also known as CAM3.IR539T; MRA-1240, contributed by Didier Ménard.” left out
as §1, with “During rescue experiments, parasite growth medium was supplemented with 200 μM isopentenyl pyrophosphate (IPP; Echelon Biosciences).” left out

P. falciparum strain 7G8 = experiment: Parasite sensitivity assay, strain 7G8 (multidrug (chloroquine)-resistant); type: cell-based; details: Plasmodium falciparum, mean and SEM, read-out: Whole Cell Growth Inhibition EC50
Protocol: as §3, with “The IPC 5202 strain was provided by the Malaria Research and Reference Reagent Resource Center (MR4) for distribution by BEI Resources NIAID, NIH: Plasmodium falciparum, Strain IPC 5202, also known as CAM3.IR539T; MRA-1240, contributed by Didier Ménard.” left out
as §1, with “During rescue experiments, parasite growth medium was supplemented with 200 μM isopentenyl pyrophosphate (IPP; Echelon Biosciences).” left out

EcIspD-wt = target: T2, EcIspD-wt (Escherichia coli, UniProt Q46893); experiment: IspD enzyme assay, recombinant EcIspD-wt; type: biochemical, E. coli
T2 construct: 6His; made in house; host or cells: Artic Express (DE3) RIL E. coli
Protocol: as §2

[4] = Calculated ClogD and aqueous solubility (AstraZeneca algorithms); details: predicted values

PvIspD, sequence (A5K9U5 entry or part of it): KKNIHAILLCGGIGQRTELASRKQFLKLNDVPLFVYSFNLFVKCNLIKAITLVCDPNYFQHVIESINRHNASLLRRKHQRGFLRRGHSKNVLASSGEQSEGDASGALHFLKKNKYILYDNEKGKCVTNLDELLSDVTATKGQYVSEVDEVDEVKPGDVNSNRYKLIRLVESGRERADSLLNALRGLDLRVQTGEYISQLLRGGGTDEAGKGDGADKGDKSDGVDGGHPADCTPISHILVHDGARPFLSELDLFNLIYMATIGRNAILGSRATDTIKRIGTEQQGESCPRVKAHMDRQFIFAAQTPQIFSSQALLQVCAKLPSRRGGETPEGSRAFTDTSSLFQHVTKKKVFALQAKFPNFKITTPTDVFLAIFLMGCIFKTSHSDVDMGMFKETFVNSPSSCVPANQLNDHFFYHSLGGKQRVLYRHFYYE
PfIspD, sequence (Q8I273 entry or part of it): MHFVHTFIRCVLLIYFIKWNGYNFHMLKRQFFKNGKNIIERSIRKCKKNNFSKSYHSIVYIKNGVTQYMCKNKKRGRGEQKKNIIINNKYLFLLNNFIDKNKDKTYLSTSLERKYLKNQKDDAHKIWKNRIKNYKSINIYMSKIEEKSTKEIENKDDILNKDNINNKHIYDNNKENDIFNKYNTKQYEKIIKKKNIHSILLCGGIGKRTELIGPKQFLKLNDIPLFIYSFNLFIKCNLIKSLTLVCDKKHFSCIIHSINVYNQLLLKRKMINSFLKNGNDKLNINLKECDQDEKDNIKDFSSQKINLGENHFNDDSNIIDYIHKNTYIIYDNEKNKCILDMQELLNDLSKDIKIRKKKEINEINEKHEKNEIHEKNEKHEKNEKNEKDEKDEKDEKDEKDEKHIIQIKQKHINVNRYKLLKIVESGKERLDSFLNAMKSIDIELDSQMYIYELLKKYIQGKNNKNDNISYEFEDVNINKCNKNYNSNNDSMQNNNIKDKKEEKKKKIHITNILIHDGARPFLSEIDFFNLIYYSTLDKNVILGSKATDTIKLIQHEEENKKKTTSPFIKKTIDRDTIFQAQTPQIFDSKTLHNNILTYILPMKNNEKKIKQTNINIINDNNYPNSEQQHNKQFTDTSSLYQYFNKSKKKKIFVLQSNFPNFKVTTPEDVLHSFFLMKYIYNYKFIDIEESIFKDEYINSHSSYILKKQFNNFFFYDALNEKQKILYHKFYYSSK
T1 sequence (Q46893 whole entry A14C): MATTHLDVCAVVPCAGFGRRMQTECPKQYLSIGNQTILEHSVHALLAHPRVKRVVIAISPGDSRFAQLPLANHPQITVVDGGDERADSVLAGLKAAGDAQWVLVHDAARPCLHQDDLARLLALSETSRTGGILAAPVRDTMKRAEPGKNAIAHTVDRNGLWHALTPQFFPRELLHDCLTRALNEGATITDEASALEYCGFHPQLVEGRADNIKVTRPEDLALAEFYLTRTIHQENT
T2 sequence (Q46893 whole entry): as the sequence (Q46893 whole entry A14C) above, with C14A counted along it

Oc1c(Cc2ccccc2)c(Cl)cc2ncnn12 [3a]
IC50 (A. thaliana IspD): 140 nM

N#Cc1cnn2c(O)c(Cc3ccccc3)c(Cl)cc12 [3b]
IC50 (A. thaliana IspD): 35 nM

O=CN(O)CCCP(=O)(O)O [FSM, fosmidomycin, reference compound]
MEcPP levels compared to untreated parasites (MEP pathway): Significant decreases | IPP rescue of parasite growth (P. falciparum strain 3D7 [1]): rescue

Oc1c(Br)cc(Br)cc1-c1[nH]c(Br)c(Br)c1Br [compound 1]
IC50 (A. thaliana IspD): 13000 nM | IC50 (P. vivax IspD): 48000 nM

COc1ccc2nc(NC(=O)c3cc(-c4ccccc4O)n[nH]3)sc2c1 [compound 2]
IC50 (A. thaliana IspD): 1800 nM

O=C(O)[C@@H]1Cc2c([nH]c3ccccc23)[C@@H](c2ccc(Cl)cc2Cl)N1 [compound 4, 1R,3S-MMV008138]
IC50 (P. falciparum IspD): 47 nM

Cc1ccc(-n2sc3ccccc3c2=O)cc1S(=O)(=O)N1CCOCC1 [compound 7]
IC50 (PvIspD): 45 ± 20 nM | IC50 (PfIspD): 450 ± 79 nM | EC50 (P. falciparum strain 3D7 [2]): 4300 ± 180 nM

COc1ccc(-c2cccc(-n3sc4ccccc4c3=O)c2)cc1 [compound 8, 2-(4’-methoxy-[1,1’-biphenyl]-3-yl)benzo[d]isothiazol-3(2H)-one]
IC50 (EcIspD-A14C): 440 ± 48 nM | DOXP levels compared to untreated parasites (MEP pathway): not affected | MEcPP levels compared to untreated parasites (MEP pathway): Significant decreases | decrease in sensitivity, PfIspD-C202A versus PfIspD-wt (PfIspD-C202A): 6 fold | EC50 [3]: 1380 ± 190 nM | IPP rescue of parasite growth (P. falciparum strain 3D7 [1]): did not observe rescue; also recorded: No rescue was observed | EC50 (P. falciparum strain 3D7 [1]; Plasmodium falciparum, 3D7, mean and SEM, n ≥ 3): 980 ± 240 nM | EC50 (P. falciparum strain D6): 800 ± 120 nM | EC50 (P. falciparum strain 7G8): 1020 ± 250 nM | inhibition of recombinant EcIspD (wild type) (EcIspD-wt): highly resistant to inhibition

O=c1c2ccccc2sn1-c1cccc(-c2ccc(Cl)cc2)c1 [compound 9, 2-(4’-chloro-[1,1’-biphenyl]-3-yl)benzo[d]isothiazol-3(2H)-one]
IC50 (PvIspD): 57 ± 13 nM | IC50 (PfIspD): 73 ± 20 nM | EC50 (P. falciparum strain 3D7 [2]): 1100 ± 160 nM

O=c1c2ccccc2sn1-c1cccc(-c2ccc(C(F)(F)F)cc2)c1 [compound 10, 2-(4’-(trifluoromethyl)-[1,1’-biphenyl]-3-yl)benzo[d]isothiazol-3(2H)-one]
IC50 (PvIspD): 41 ± 18 nM | IC50 (PfIspD): 270 ± 15 nM | EC50 (P. falciparum strain 3D7 [2]): 650 ± 21 nM

CN1CCN(Cc2ccc(-c3cccc(-n4sc5ccccc5c4=O)c3)cc2)CC1 [compound 11, 2-(4’-((4-methylpiperazin-1-yl)methyl)-[1,1’-biphenyl]-3-yl)benzo[d]isothiazol-3(2H)-one]
IC50 (PvIspD): 62 ± 26 nM | IC50 (PfIspD): 440 ± 75 nM | EC50 (P. falciparum strain 3D7 [2]): 420 ± 6 nM | increase in predicted aqueous solubility compared to 9 [4]: 100 fold

O=c1c2ccccc2sn1-c1cccc(-c2ccc(CN3CCC(F)CC3)cc2)c1 [compound 12, 2-(4’-((4-fluoropiperidin-1-yl)methyl)-[1,1’-biphenyl]-3-yl)benzo[d]isothiazol-3(2H)-one]
IC50 (PvIspD): 240 ± 100 nM | IC50 (PfIspD): 860 ± 110 nM | EC50 (P. falciparum strain 3D7 [2]): 320 ± 92 nM

O=c1c2ccccc2sn1-c1cccc(-c2ccc(CN3CCOCC3)cc2)c1 [compound 13, 2-(4’-(morpholinomethyl)-[1,1’-biphenyl]-3-yl)benzo[d]isothiazol-3(2H)-one]
IC50 (PvIspD): 50 ± 16 nM | IC50 (PfIspD): 400 ± 82 nM | EC50 (P. falciparum strain 3D7 [2]): 410 ± 82 nM
